In US20240158348A1, “HERBICIDAL CYCLIC AMIDES N-SUBSTITUTED WITH A HALOALKYLSULFONYLANILIDE GROUP” (FMC Corporation, priority 2021, published 2024):

Tests used:
Type in all cases: in vivo
[1] = test system: foxtail, giant (giant foxtail, Setaria faberi); test: Test C preemergence, giant foxtail; details: 0 is no effect, 100 is complete control
Summary of the method: (§1)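 Greenhouse pot test. Compounds in a non-phytotoxic solvent with surfactant were applied to a loam–sand soil mix either preemergence as a directed spray or postemergence to plants at the one- to two-leaf stage; 0–100 visual ratings followed after 10 or 12 days.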

[2] = test system: kochia (Bassia scoparia); test: Test C postemergence, kochia; details: for Kochia plant response rating: visual injury, 0 to 100 scale (0 no effect, 100 complete control); for Plant response rating (0 to 100 scale), Kochia: 0 is no effect, 100 is complete control
Summary of the method: as §1

[3] = test system: ragweed (common ragweed, Ambrosia artemisiifolia); test: Test C preemergence, ragweed; details: 0 is no effect, 100 is complete control
Summary of the method: (§2)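 Visual injury rating, 0 (no effect) to 100 (complete control), versus untreated controls after 10 or 12 days in the greenhouse. Compounds were formulated in non-phytotoxic solvent plus surfactant and applied either as a directed soil spray at sowing or onto emerged one- to two-leaf plants.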

[4] = test system: barnyardgrass (Echinochloa crusgalli); test: Test D flooded paddy test, barnyardgrass; set-up: key: 0 = no effect, 100 = complete control; details: 250 g ai/ha, Flood; applied to paddy water at 2-leaf stage; visual rating after 13 days; scale 0 (no effect) to 100 (complete control)
Summary of the method: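 Plants were grown to the 2-leaf stage, then pots were flooded to 3 cm above soil and compounds applied directly into the paddy water, with that depth held throughout. After 13 days in a greenhouse, injury was visually rated against untreated controls on a 0–100 scale (0 no effect, 100 complete control).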

[5] = test system: oat, wild (wild oat, Avena fatua); test: Test C preemergence, wild oat; details: 0 is no effect, 100 is complete control
Summary of the method: as §1

[6] = test system: blackgrass (Alopecurus myosuroides); test: Test C preemergence, blackgrass; details: 0 is no effect, 100 is complete control
Summary of the method: as §1

[7] = test system: corn (Zea mays); test: Test C preemergence, corn; details: 0 is no effect, 100 is complete control
Summary of the method: as §2

[8] = test system: goosegrass (Eleusine indica); test: Test C postemergence, goosegrass; details: for Goosegrass plant response rating: visual injury, 0 to 100 scale (0 no effect, 100 complete control); for Plant response rating (0 to 100 scale), Goosegrass: 0 is no effect, 100 is complete control
Summary of the method: as §1

[9] = test system: wheat (Triticum aestivum); test: Test C preemergence, wheat; details: 0 is no effect, 100 is complete control

| Structure (SMILES) | Plant response rating (0 to 100 scale), Foxtail, Giant ([1]; 31 g ai/ha Preemergence) | Plant response rating (0 to 100 scale), Foxtail, Giant ([1]; 125 g ai/ha Preemergence) | Kochia plant response rating ([2]; 31 g ai/ha Postemergence) | Plant response rating (0 to 100 scale), Kochia ([2]; 125 g ai/ha Postemergence) | Plant response rating (0 to 100 scale), Ragweed ([3]; 31 g ai/ha Preemergence) | Plant response rating (0 to 100 scale), Ragweed ([3]; 125 g ai/ha Preemergence) | Plant response rating, Barnyardgrass [4] | Plant response rating (0 to 100 scale), Oat, Wild ([5]; 31 g ai/ha Preemergence) | Plant response rating (0 to 100 scale), Oat, Wild ([5]; 125 g ai/ha Preemergence) | Plant response rating (0 to 100 scale), Blackgrass ([6]; 31 g ai/ha Preemergence) | Plant response rating (0 to 100 scale), Blackgrass ([6]; 125 g ai/ha Preemergence) | Plant response rating (0 to 100 scale), Corn ([7]; 31 g ai/ha Preemergence) | Plant response rating (0 to 100 scale), Corn ([7]; 125 g ai/ha Preemergence) | Goosegrass plant response rating ([8]; 31 g ai/ha Postemergence) | Plant response rating (0 to 100 scale), Goosegrass ([8]; 125 g ai/ha Postemergence) | Plant response rating (0 to 100 scale), Wheat ([9]; 31 g ai/ha Preemergence) | Plant response rating (0 to 100 scale), Wheat ([9]; 125 g ai/ha Preemergence) | Kochia plant response rating ([2]; 125 g ai/ha Postemergence) | Goosegrass plant response rating ([8]; 125 g ai/ha Postemergence) |
| --- | --- | --- | --- | --- | --- | --- | --- | --- | --- | --- | --- | --- | --- | --- | --- | --- | --- | --- | --- |
| Cc1cc(Cl)c(N(COC(=O)C(C)(C)C)S(=O)(=O)C(F)(F)F)cc1N1CCC(OC2CC2)C1=O (stereo not drawn) [Compound 33] | 70 | 100 | 80 | 90 | 30 | 80 | 90 | 10 | 50 | 20 | 80 | 30 | 60 | 60 | 90 | 10 | 40 |  |  |
| Cc1cc(C)c(N2CCC(OC3COC3)C2=O)cc1NS(=O)(=O)C(F)(F)F (stereo not drawn) [Compound 34] | 90 | 90 | 80 | 90 | 50 | 100 | 35 | 30 | 80 | 30 | 50 | 10 | 80 | 30 | 80 | 30 | 80 |  |  |
| Cc1cc(C)c(N(C(=O)OC(C)C)S(=O)(=O)C(F)(F)F)cc1N1CCC(OC2CC2)C1=O (stereo not drawn) [Compound 18] | 0 | 0 | 20 | 70 | 0 | 0 | 0 | 0 | 0 | 0 | 0 | 0 | 0 | 0 | 0 | 0 | 0 |  |  |
| Cc1c(N2CCC(OC3CCC3)C2=O)cc(N(C(=O)OCC(C)C)S(=O)(=O)C(F)(F)F)c(C)c1C (stereo not drawn) [Compound 48] | 30 | 100 | 20 |  | 20 | 90 | 80 | 50 | 80 |  |  | 20 | 60 | 0 |  | 30 | 80 | 60 | 40 |
| Cc1c(N2CCC(OC3CC3)C2=O)cc(N(C(=O)OCC(C)C)S(=O)(=O)C(F)(F)F)c(C)c1C (stereo not drawn) [Compound 50] | 50 | 100 | 20 |  | 30 | 90 | 90 | 70 | 80 |  |  | 10 | 90 | 20 |  | 30 | 100 | 70 | 80 |
| Cc1cc(C)c(N(COC(=O)C(C)(C)C)S(=O)(=O)C(F)(F)F)cc1N1CCC(OCC2CCC2)C1=O (stereo not drawn) [Compound 56] | 0 | 80 | 0 |  | 0 | 30 | 35 | 0 | 0 |  |  | 0 | 10 | 0 |  | 0 | 0 | 30 | 60 |
